Reference: paper PMC9972480, “Synthesis of Quinoline and Dihydroquinoline Embelin Derivatives as Cardioprotective Agents” (Journal of Natural Products, 2023)
Like-named read-outs stand apart in the source and are kept apart here. Marks after values point to notes of the source that are not given here.

Assays:
[1] = MTT cell viability assay (cytotoxicity) in H9c2 cardiomyocytes; format: cell-based, rat; details: rat, H9c2 cardiomyocytes, 24 h, MTT; for IC50 at 24 h: H9c2 cardiomyocytes (embryonic heart-derived cells), stated for both types of cells; for viability at 24 h, 10 µM / viability at 24 h, 20 µM: mean ± SD, n = 3
Description: (§1) The potential cytotoxicity of embelin (1) together with derivatives (4a–4m, 5a–5d, 6a–6m) was tested in cardiomyocytes and macrophages in order to ensure that compounds lack toxicity also in immune cells. Cell viability was determined by the MTT assay.[58] Four dihydroquinoline derivatives (4b, 4f, 4i, and 4m) and six quinoline compounds (6a, 6d, 6e, 6i, 6k, and 6m) maintained higher viable cell rates in both types of cells. IC50 values of these derivatives were higher than 40 μM and were selected for further analysis.
(§2) J774A.1 murine macrophage cells, H9c2 embryonic rat heart-derived cells, and MCF-7 breast cancer cells were purchased from American Type Cell Culture (ATCC, Manassas, VA, USA). Cells were cultured in Dulbecco’s modified Eagle medium with 10% fetal bovine serum and 1% penicillin/streptomycin (Lonza) and were maintained at 37 °C in a humidified incubator containing 5% CO2.
(§3) Cell viability was assessed by conducting an MTT [3-(4,5-dimethylthiazol-2-yl)-2,5-diphenyltetrazolium bromide dye] assay. Briefly, J 774A.1, H9c2, and MCF7 cells were seeded in 96-well plates for 24 h. Then, cells were treated with DOX in the absence or presence of compounds. MTT (Sigma) reagent was added to the medium for 1 h at 37 °C. Then, the formazan was dissolved in dimethyl sulfoxide (DMSO, 100 μL). Absorbance was measured at 540 nm with a microplate reader (BMG Labtech).

[2] = MTT cell viability assay (cytotoxicity) in J774 macrophages; format: cell-based, murine; details: mouse
Description: as §1, §2, §3

[3] = tested on: MCF-7 human breast tumor cells; test: Effect on chemotherapeutic activity of DOX, MTT; format: cell-based; details: MCF-7 cells, compound 20 μM + DOX 1 μM, 24 h
Description: Next, cytotoxicity of the selected compounds was also tested in MCF-7 breast cancer cells to disconfirm that protective effects might antagonize the antitumor effects of doxorubicin.
Figure 4 Effects of derivatives 4i, 6a, 6d, 6e, 6k, and 6m on the chemotherapeutic activity of DOX in MCF-7 human breast tumor cells. Cells were co-treated with selected compounds at 20 μM and DOX (1 μM) for 24 h. Cell viability was measured by MTT assay. Results are reported as mean of cell viability ± SD (n = 3). ****p < 0.0001 vs DOX-treated cells.
as §3

ROS in H9c2 cells = test: Intracellular ROS levels, DCFH-DA assay; format: cell-based, rat; details: for ROS production on co-treatment with DOX: compound 20 μM + DOX 1 μM, 24 h, vs DOX-treated cells
Description: Oxidative stress is produced by an imbalance between radical oxygen species (ROS) formation and endogenous antioxidant activation in reaction to cell injury, leading to myocardial toxicity. Accordingly, DOX-induced ROS production in the H9c2 cells was quantified with the DCFH-DA fluorogenic dye. […] No effects on ROS production were observed when compounds were incubated alone with cells. […] The inhibitory effects of embelin derivatives were similar to those induced by N-acetyl-cysteine (NAC), a well-known antioxidant.
Figure 5 Derivatives 4i, 6a, 6d, 6k, and 6m reduced ROS levels produced by DOX in H9c2 cells. Levels of ROS in H9c2 cells were measured fluorometrically after treatment with DOX (1 μM) alone or co-treatment with N-acetyl cysteine (NAC, 1 mM) or selected derivatives (20 μM) for 24 h, using the 2′,7′-dichlorfluorescein-diacetate (DCFH-DA) assay. Values are expressed as mean ± SD with respect to DOX-treated cells (n = 3). ****p < 0.0001 vs DOX-treated cells.
Intracellular ROS levels in H9c2 cells were evaluated by monitoring the oxidation of 2′,7′-dichlorfluorescein-diacetate (DCFH-DA) (Sigma) to fluorescent dichlorofluorescein. Cells were treated with DOX (1 μM) in the absence or presence of compounds or NAC as ROS inhibitor (1 mM) (Sigma). Then, cells were incubated with 10 μM DCFH-DA at 37 °C in the dark for 30 min. ROS level was fluorimetrically evaluated at 485/550 nm during 24 h.

H9c2 cardiomyocytes = test: MTT cell viability assay (cytotoxicity) in H9c2 cardiomyocytes; format: cell-based, rat
Description: as §1, §2, §3

J774 macrophages = test: MTT cell viability assay (cytotoxicity) in J774 macrophages; format: cell-based, murine
Description: as §1, §2, §3

Molecule | IC50 at 24 h [1] [µM] | viability at 24 h, 10 µM [1] [%] | viability at 24 h, 20 µM [1] [%] | IC50 at 24 h [2] [µM] | viability at 24 h, 10 µM [2] [%] | viability at 24 h, 20 µM [2] [%] | Effect on antitumor (chemotherapeutic) activity of DOX [3] | ROS production on co-treatment with DOX (ROS in H9c2 cells) | melting point [°C] | Cell viability (%) H9c2 cardiomyocytes 10 μM (H9c2 cardiomyocytes) [%] | Cell viability (%) H9c2 cardiomyocytes 20 μM (H9c2 cardiomyocytes) [%] | IC50 (H9c2 cardiomyocytes) [µM] | Cell viability (%) J774 macrophages 10 μM (J774 macrophages) | Cell viability (%) J774 macrophages 20 μM (J774 macrophages) | IC50 (J774 macrophages) [µM] | IC50 (H9c2 cardiomyocytes; Rattus norvegicus, H9c2 cardiomyocytes, 24 h, MTT, read-out: IC50 (loss in cell viability, DOX-treated vs untreated cells)) [µM] | Levels of ROS compared to untreated cells (ROS in H9c2 cells; DOX 1 μM alone)
CCCCCCCCCCCC1=C(O)C(=O)c2c(nc3ccccc3c2-c2ccc([N+](=O)[O-])cc2)C1=O [Compound 6a, 2-Hydroxy-9-(4-nitrophenyl)-3-undecylacridine-1,4-dione] | > 40 | 97.6 ± 7 | 87.8 ± 6.9 | > 40 | 96.3 ± 2.1 | 76.9 ± 2.8 | without reducing DOX’s chemotherapeutic effect | significantly inhibited ROS production | – | – | – | – | – | – | – | – | –
CCCCCCCCCCCC1=C(O)C(=O)c2c(nc3ccc(Br)cc3c2-c2ccc([N+](=O)[O-])cc2)C1=O [Compound 6m, 7-Bromo-2-hydroxy-9-(4-nitrophenyl)-3-undecylacridine-1,4-dione] | > 40 | 89.8 ± 7.6 | 85.9 ± 8.2 | > 40 | 99.6 ± 4.6 | 86.4 ± 8.7 | without reducing DOX’s chemotherapeutic effect | significantly inhibited ROS production | – | – | – | – | – | – | – | – | –
CCCCCCCCCCCC1=C(O)C(=O)C2=C(Nc3ccccc3C2c2ccc(C)c(C)c2)C1=O (stereo not drawn) [Compound 4i, 2-Hydroxy-9-(3,4-dimethylphenyl)-3-undecyl-9,10-dihydroacridine-1,4-dione] | > 40 | 84.3 ± 6.8 | 82.2 ± 6.2 | > 40 | 96.2 ± 6.8 | 72.6 ± 1.7 | without reducing DOX’s chemotherapeutic effect | significantly inhibited ROS production | 106 to 108 | – | – | – | – | – | – | – | –
CCCCCCCCCCCC1=C(O)C(=O)c2c(nc3ccccc3c2-c2ccc(Br)cc2)C1=O [Compound 6d, 2-Hydroxy-9-(4-bromophenyl)-3-undecylacridine-1,4-dione] | > 40 | 99.4 ± 0.2 | 99.3 ± 2.6 | > 40 | 82.1 ± 3.7 | 74.5 ± 3.9 | without reducing DOX’s chemotherapeutic effect | significantly inhibited ROS production | – | – | – | – | – | – | – | – | –
CCCCCCCCCCCC1=C(O)C(=O)C2=C(Nc3ccc(Br)cc3C2c2ccc([N+](=O)[O-])cc2)C1=O (stereo not drawn) [Compound 4m, 7-Bromo-2-hydroxy-9-(4-nitrophenyl)-3-undecyl-9,10-dihydroacridine-1,4-dione] | > 40 | 96.5 ± 5.5 | 96.2 ± 4.8 | > 40 | 94.7 ± 4.2 | 77.2 ± 4.9 | – | – | 236 to 237 | – | – | – | – | – | – | – | –
2-Hydroxy-7-methoxy-9-(4-nitrophenyl)-3-undecylacridine-1,4-dione [Compound 6k] | – | – | – | – | – | – | without reducing DOX’s chemotherapeutic effect | significantly inhibited ROS production | – | 99.2 ± 0.8 | 94.4 ± 6.3 | > 40 | 81.9 ± 4.6 ^e % | 76.3 ± 5.3 ^e % | > 40 | – | –
CCCCCCCCCCCC1=C(O)C(=O)C2=C(Nc3ccccc3C2c2ccccc2)C1=O (stereo not drawn) [Compound 4b, 2-Hydroxy-9-phenyl-3-undecyl-9,10-dihydroacridine-1,4-dione] | > 40 | 98.1 ± 6.8 | 95.8 ± 7.7 | > 40 | 99.7 ± 1.1 | 98.7 ± 1.2 | – | – | 161 to 162 | – | – | – | – | – | – | – | –
COc1cccc2c1C(=O)c1c(O)c3c(c(O)c1C2=O)C[C@@](O)(C(=O)CO)C[C@@H]3O[C@H]1C[C@H](N)[C@H](O)[C@H](C)O1 [DOX, Doxorubicin, reference compound] | – | – | – | – | – | – | – | – | – | – | – | – | – | – | – | 0.83 | significantly increased the levels of ROS
